In patent US20230140290A1, “SALICYLAMIDE DERIVATIVES AND RELATED METHODS OF MAKING” (THE BOARD OF REGENTS OF THE UNIVERSITY OF TEXAS SY, priority 2020, published 2023):

Legend:
[1] = tested on: HAdV5-GFP; experiment: Plaque assay (inhibition of HAdV plaque formation); format: cell-based, HAdV-5; settings: for Selectivity index (SI): ratio of CC50 to IC50 in plaque assay; for inhibition at 10 µM: read-out: Plaque Assay (%) Inhibition (10 μM); for IC50: read-out: Plaque Assay IC50 (μM), HAdV5-GFP, low MOI, 293β5 cell line
Description: Plaque Assay. […] When cells reached 80-90% confluency, they were infected with HAdV5-GFP (0.06 vp/cell) and rocked for 2 h at 37° C. After the incubation the inoculum was removed, and the cells were washed once with PBS.
Plaque Assay. Compounds were tested using low MOI infections (0.06 vp/cell) and at concentrations of 10 μM and in a dose-response assay ranging from 10 to 0.3 μM in a plaque assay. […] When cells reached 80-90% confluency, they were infected with HAdV5-GFP (0.06 vp/cell) and rocked for 2 h at 37° C. After the incubation the inoculum was removed, and the cells were washed once with PBS. […] The mixture also contained the compounds in concentrations ranging from 10 to 0.3 μM.

[2] = tested on: A549 cells; experiment: Cytotoxicity assay (AlamarBlue); settings: read-out: CC50 (μM), cytotoxic concentration 50%; A549 cell line, 48 h
Description: Cytotoxicity Assay. The cytotoxicity of the compounds was analyzed by commercial kit AlamarBlue® (Invitrogen, Ref. DAL1025). A549 cells at a density of 5×10^3 cells per well in 96-well plates were seeded. […] Cells were then incubated at 37° C. for 48 h following the kit protocol. The cytotoxic concentration 50 (CC50) value was obtained using the statistical package GraphPad Prism. This assay was performed in duplicate.

Compound | Selectivity index (SI) [1] | inhibition at 10 µM [1] | IC50 [1] | CC50 [2]
CC(C)Nc1ccc(NC(=O)c2cc(Cl)ccc2O)c(Cl)c1 [Compound 81, 5-Chloro-N-(2-chloro-4-(isopropylamino)phenyl)-2-hydroxybenzamide] | 12.5 | 100% | 0.88 µM | 11 ± 1.4 µM
O=C(Nc1ccc(NCc2ccc(Br)cc2)cc1Cl)c1cc(Cl)ccc1O [Compound 97, N-(4-((4-Bromobenzyl)amino)-2-chlorophenyl)-5-chloro-2-hydroxybenzamide] | 22.2 | 100% | 1.84 ± 0.1 µM | 40.9 ± 2.2 µM
CC(C)(C)OC(=O)N1CCC(Nc2ccc(NC(=O)c3cc(Cl)ccc3O)c(Cl)c2)CC1 [Compound 124, tert-Butyl 4-((3-chloro-4-(5-chloro-2-hydroxybenzamido)phenyl)amino)piperidine-1-carboxylate] | 82.6 | 88.9 ± 9% | 1.21 µM | 100 µM
CS(=O)(=O)Nc1ccc(Cl)cc1C(=O)Nc1ccc(NC2CCCC2)cc1Cl [Compound 140, 5-Chloro-N-(2-chloro-4-(cyclopentylamino)phenyl)-2-(methylsulfonamido)benzamide] | 20.6 | 99.8 ± 0.4% | 1.72 µM | 35.4 ± 2.7 µM
O=C(Nc1ccc(NCc2ccc(Cl)cc2)cc1Cl)c1cc(Cl)ccc1O [Compound 96, 5-Chloro-N-(2-chloro-4-((4-chlorobenzyl)amino)phenyl)-2-hydroxybenzamide] | 49.7 | 100% | 1.2 ± 0.01 µM | 59.7 ± 0.3 µM
O=C(NCc1cc(F)cc(C(F)(F)F)c1)c1cc(Cl)ccc1O [Compound 35, 5-Chloro-N-(3-fluoro-5-(trifluoromethyl)benzyl)-2-hydroxybenzamide] | 15.1 | 98.1 ± 1.4% | 2.4 ± 0.05 µM | 36.3 ± 7.9 µM
O=C(Nc1ccc(NC2CCCC2)cc1)c1cc(Cl)ccc1O [Compound 141, 5-Chloro-N-(4-(cyclopentylamino)phenyl)-2-hydroxybenzamide] | 3.9 | 99.8 ± 0.3% | 2.6 µM | 10 ± 2.2 µM
CCCCCCCCC(C)Nc1ccc(NC(=O)c2cc(Cl)ccc2O)c(Cl)c1 (centres unmarked) [Compound 84, 5-Chloro-N-(2-chloro-4-(decan-2-ylamino)phenyl)-2-hydroxybenzamide] | 18.1 | 100% | 1.21 ± 0.02 µM | 21.9 ± 8.9 µM
O=C(NCc1ccc(C(F)(F)F)cc1)c1cc(Cl)ccc1O [Compound 42, 5-Chloro-2-hydroxy-N-(4-(trifluoromethyl)benzyl)benzamide] | 9.2 | 99.6 ± 0.2% | 2.59 ± 0.42 µM | 23.9 ± 9.2 µM
O=C(Nc1ccc(NC2CCCCC2)cc1Cl)c1cc(Cl)ccc1O [Compound 88, 5-Chloro-N-(2-chloro-4-(cyclohexylamino)phenyl)-2-hydroxybenzamide] | 51.1 | 99.5 ± 0.7% | 1.34 µM | 68.3 µM
C[C@H](NC(=O)c1cc(Cl)ccc1O)C(=O)Nc1ccc([N+](=O)[O-])cc1Cl [Compound 57, (S)-5-Chloro-N-(1-((2-chloro-4-nitrophenyl)amino)-1-oxopropan-2-yl)-2-hydroxybenzamide] | 26.0 | 97.4 ± 2.7% | 3.85 µM | 100 µM
Cc1ccc(O)c(C(=O)Nc2cc(F)cc(C(F)(F)F)c2)c1 [Compound 19, N-(3-Fluoro-5-(trifluoromethyl)phenyl)-2-hydroxy-5-methylbenzamide] | – | 98 ± 2.8% | 0.65 µM | 15.2 µM
Cc1ccc(CNC(=O)c2cc(Cl)ccc2O)cc1 [Compound 44, 5-Chloro-2-hydroxy-N-(4-methylbenzyl)benzamide] | 10.8 | 96.6 ± 4% | 8.12 ± 2.16 µM | 87.7 ± 4.7 µM
CN(C)c1ccc(CNc2ccc(NC(=O)c3cc(Cl)ccc3O)c(Cl)c2)cc1 [Compound 102, 5-Chloro-N-(2-chloro-4-((4-(dimethylamino)benzyl)amino)phenyl)-2-hydroxybenzamide] | 9.0 | 100% | 2.73 ± 0.26 µM | 24.5 ± 3.5 µM
O=C(Nc1cc(F)cc(C(F)(F)F)c1)c1cccc(Cl)c1 [Compound 21, 3-Chloro-N-(3-fluoro-5-(trifluoromethyl)phenyl)benzamide] | 6.9 | 99.3 ± 0.9% | 5.61 ± 0.37 µM | 38.6 ± 1.7 µM
O=C(Nc1ccc(NCc2ccccc2)cc1Cl)c1cc(Cl)ccc1O [Compound 94, N-(4-(Benzylamino)-2-chlorophenyl)-5-chloro-2-hydroxybenzamide] | 7.8 | 100% | 2.52 ± 0.01 µM | 19.7 ± 2.8 µM
CC(C)[C@H](NC(=O)c1cc(Cl)ccc1O)C(=O)Nc1ccc(NC2CCCC2)cc1Cl [Compound 147, (S)-5-chloro-N-(1-((2-chloro-4-(cyclopentylamino)phenyl)amino)-3-methyl-1-oxobutan-2-yl)-2-hydroxybenzamide] | 28.9 | 99.5 ± 0.7% | 3.83 ± 0.42 µM | 111 ± 8.4 µM
O=C(Nc1cc(C(F)(F)F)cc(C(F)(F)F)c1)c1cc(Cl)ccc1O [Compound 16, N-(3,5-Bis(trifluoromethyl)phenyl)-5-chloro-2-hydroxybenzamide] | 68.3 | 100% | 0.06 µM | 4.1 µM
O=C(NCc1ccc(Cl)cc1)c1cc(Cl)ccc1O [Compound 38, 5-Chloro-N-(4-chlorobenzyl)-2-hydroxybenzamide] | 7.6 | 97.4 ± 3.7% | 3.57 ± 1.43 µM | 27.1 ± 1.1 µM
O=C(Nc1ccc(NCc2ccc(C(F)(F)F)cc2)cc1Cl)c1cc(Cl)ccc1O [Compound 98, 5-Chloro-N-(2-chloro-4-((4-(trifluoromethyl)benzyl)amino)phenyl)-2-hydroxybenzamide] | 43.8 | 99.6 ± 0.6% | 1.43 ± 0.29 µM | 62.7 ± 6.1 µM
O=C(NCc1ccc(Cl)cc1Cl)c1cc(Cl)ccc1O [Compound 32, 5-Chloro-N-(2,4-dichlorobenzyl)-2-hydroxybenzamide] | – | 99.2 ± 0.4% | 1.73 ± 0.51 µM | 30.9 ± 13.6 µM
O=C(Nc1cc(F)cc(C(F)(F)F)c1)c1ccccc1O [Compound 18, N-(3-Fluoro-5-(trifluoromethyl)phenyl)-2-hydroxybenzamide] | – | 98.7 ± 1.9% | 1.07 µM | 16.3 µM
O=C(Nc1ccc(NCc2cc(C(F)(F)F)cc(C(F)(F)F)c2)cc1Cl)c1cc(Cl)ccc1O [Compound 107, N-(4-((3,5-Bis(trifluoromethyl)benzyl)amino)-2-chlorophenyl)-5-chloro-2-hydroxybenzamide] | 82.9 | 100% | 1.12 ± 0.49 µM | 92.8 µM
CS(=O)(=O)Nc1ccc(Cl)cc1C(=O)NCC(=O)Nc1ccc([N+](=O)[O-])cc1Cl [Compound 72, 5-Chloro-N-(2-((2-chloro-4-nitrophenyl)amino)-2-oxoethyl)-2-(methylsulfonamido)benzamide] | 14.6 | 99.6 ± 5.5% | 9.65 ± 0.01 µM | 141 ± 13.5 µM
O=C(Nc1ccc(NCc2cccc(C(F)(F)F)c2)cc1Cl)c1cc(Cl)ccc1O [Compound 99, 5-Chloro-N-(2-chloro-4-((3-(trifluoromethyl)benzyl)amino)phenyl)-2-hydroxybenzamide] | 15.2 | 100% | 0.88 ± 0.4 µM | 13.3 ± 6.9 µM
CC(C)[C@H](NC(=O)c1cc(Cl)ccc1O)C(=O)Nc1cc(C(F)(F)F)cc(C(F)(F)F)c1 [Compound 65, (S)—N-(1-((3,5-Bis(trifluoromethyl)phenyl)amino)-3-methyl-1-oxobutan-2-yl)-5-chloro-2-hydroxybenzamide] | 77.4 | 99.5 ± 0.7% | 0.4 µM | 30.9 µM
O=C(Nc1ccc(NCc2ccc3cn[nH]c3c2)cc1Cl)c1cc(Cl)ccc1O [Compound 114, N-(4-(((1H-Indazol-6-yl)methyl)amino)-2-chlorophenyl)-5-chloro-2-hydroxybenzamide] | 9.7 | 98 ± 0.7% | 4.65 µM | 45.3 ± 0.4 µM
O=C(NCc1ccc(F)cc1Cl)c1cc(Cl)ccc1O [Compound 31, 5-Chloro-N-(2-chloro-4-fluorobenzyl)-2-hydroxybenzamide] | 12.1 | 97.1 ± 4.1% | 2.56 ± 0.06 µM | 30.9 ± 10.2 µM
CC(C)(C)OC(=O)NCCNc1ccc(NC(=O)c2cc(Cl)ccc2O)c(Cl)c1 [Compound 122, tert-Butyl (2-((3-chloro-4-(5-chloro-2-hydroxybenzamido)phenyl)amino)ethyl)carbamate] | 9.0 | 100% | 2.78 µM | 25 ± 5.7 µM
